Assays:
Test in all cases: relative viability (nuclei count vs DMSO), 5 days (fraction); higher = more cells survive
[1] = test system: NCI-H838
How it was run: (§1)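 Relative viability divides the nuclei count in treated wells by that in vehicle wells. Lung cancer cell lines were seeded in 1536-well plates, dosed by pin tool the next day, and fixed and stained after 5 days in one step with final 0.05% Triton X-100, 1% formaldehyde and 1 ug/ml Hoechst. Dosing was a single drug or a fixed anchor-drug dose plus five library-drug doses (not always all listed) in √10 steps, and values are medians of duplicate plates imaged at 4×.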

[2] = test system: HCC-78
How it was run: as §1

[3] = test system: PC-3 [JPC-3]
How it was run: as §1

[4] = test system: NCI-H2405
How it was run: as §1

[5] = test system: HCC-366
How it was run: as §1

[6] = test system: NCI-H1355
How it was run: as §1

[7] = test system: NCI-H2126
How it was run: as §1

[8] = test system: NCI-H1437
How it was run: as §1

[9] = test system: LU99A
How it was run: as §1

[10] = test system: HARA
How it was run: as §1

[11] = test system: NCI-H2347
How it was run: as §1

[12] = test system: NCI-H441
How it was run: as §1

[13] = test system: NCI-H1734
How it was run: as §1

[14] = test system: HCC-44
How it was run: as §1

[15] = test system: NCI-H358
How it was run: as §1

[16] = test system: BEN
How it was run: as §1

[17] = test system: NCI-H727
How it was run: as §1

[18] = test system: 201T
How it was run: as §1

Molecule `COCC1(CO)C(=O)C2CCN1CC2` (stereo unspecified) [PRIMA-1MET] + NC(=O)Nc1cc(-c2cccc(F)c2)sc1C(=O)N[C@H]1CCCNC1 [AZD7762] (partner 0.2 µM) has a relative viability ([1]; first compound 0.2 µM) of 0.989, a relative viability ([1]; first compound 0.6325 µM) of 0.88 and a relative viability ([1]; first compound 2 µM) of 0.9. The relative viability ([1]; first compound 6.325 µM) was 1.05, the relative viability ([1]; first compound 20 µM) was 0.849 and the relative viability ([2]; first compound 0.2 µM) was 0.893. It also gave a relative viability ([2]; first compound 0.6325 µM) of 0.62, a relative viability ([2]; first compound 2 µM) of 0.555 and a relative viability ([2]; first compound 6.325 µM) of 0.69. The relative viability ([2]; first compound 20 µM) was 0.174, the relative viability ([3]; first compound 0.2 µM) was 1 and the relative viability ([3]; first compound 0.6325 µM) was 0.797. It also gave a relative viability ([3]; first compound 2 µM) of 0.811, a relative viability ([3]; first compound 6.325 µM) of 0.904 and a relative viability ([3]; first compound 20 µM) of 0.672. The relative viability ([4]; first compound 0.2 µM) was 0.753, the relative viability ([4]; first compound 0.6325 µM) was 0.748 and the relative viability ([4]; first compound 6.325 µM) was 0.676. It also gave a relative viability ([4]; first compound 20 µM) of 0.0739, a relative viability ([5]; first compound 0.2 µM) of 0.3 and a relative viability ([5]; first compound 0.6325 µM) of 0.186. It also gave a relative viability ([5]; first compound 2 µM) of 0.223, a relative viability ([5]; first compound 6.325 µM) of 0.281 and a relative viability ([5]; first compound 20 µM) of 0.168. For the same molecule, the relative viability ([6]; first compound 0.2 µM) was 0.887, the relative viability ([6]; first compound 0.6325 µM) was 0.61 and the relative viability ([6]; first compound 2 µM) was 0.702. It also gave a relative viability ([6]; first compound 6.325 µM) of 0.874, a relative viability ([6]; first compound 20 µM) of 0.72 and a relative viability ([7]; first compound 0.2 µM) of 1.05. The relative viability ([7]; first compound 0.6325 µM) was 1.02, the relative viability ([7]; first compound 2 µM) was 0.975 and the relative viability ([7]; first compound 6.325 µM) was 1.02. For the same molecule, the relative viability ([7]; first compound 20 µM) was 0.978, the relative viability ([8]; first compound 0.2 µM) was 1.16 and the relative viability ([8]; first compound 0.6325 µM) was 1.09. It also gave a relative viability ([8]; first compound 2 µM) of 1.03, a relative viability ([8]; first compound 6.325 µM) of 1.12 and a relative viability ([8]; first compound 20 µM) of 1.05. For the same molecule, the relative viability ([9]; first compound 0.2 µM) was 0.548, the relative viability ([9]; first compound 0.6325 µM) was 0.167 and the relative viability ([9]; first compound 2 µM) was 0.443. For the same molecule, the relative viability ([9]; first compound 6.325 µM) was 0.361, the relative viability ([9]; first compound 20 µM) was 0.0555 and the relative viability ([10]; first compound 0.2 µM) was 0.308. The relative viability ([10]; first compound 0.6325 µM) was 0.265, the relative viability ([10]; first compound 2 µM) was 0.493 and the relative viability ([10]; first compound 6.325 µM) was 0.333. The relative viability ([10]; first compound 20 µM) was 0.254, the relative viability ([11]; first compound 0.2 µM) was 0.709 and the relative viability ([11]; first compound 0.6325 µM) was 0.668. It also gave a relative viability ([11]; first compound 2 µM) of 0.569, a relative viability ([11]; first compound 6.325 µM) of 0.761 and a relative viability ([11]; first compound 20 µM) of 0.525. For the same molecule, the relative viability ([12]; first compound 0.2 µM) was 1.09, the relative viability ([12]; first compound 0.6325 µM) was 1.06 and the relative viability ([12]; first compound 2 µM) was 0.833. The relative viability ([12]; first compound 6.325 µM) was 1.1, the relative viability ([12]; first compound 20 µM) was 0.731 and the relative viability ([13]; first compound 0.2 µM) was 0.52. The relative viability ([13]; first compound 0.6325 µM) was 0.538, the relative viability ([13]; first compound 2 µM) was 0.685 and the relative viability ([13]; first compound 6.325 µM) was 0.452. The relative viability ([13]; first compound 20 µM) was 0.0452, the relative viability ([14]; first compound 0.2 µM) was 1.02 and the relative viability ([14]; first compound 0.6325 µM) was 1.01. It also gave a relative viability ([14]; first compound 2 µM) of 1.18, a relative viability ([14]; first compound 6.325 µM) of 1.03 and a relative viability ([14]; first compound 20 µM) of 1.01. The relative viability ([15]; first compound 0.2 µM) was 0.592, the relative viability ([15]; first compound 2 µM) was 0.489 and the relative viability ([15]; first compound 6.325 µM) was 0.484. It also gave a relative viability ([15]; first compound 20 µM) of 0.0265, a relative viability ([16]; first compound 0.2 µM) of 0.733 and a relative viability ([16]; first compound 0.6325 µM) of 0.603. The relative viability ([16]; first compound 6.325 µM) was 0.653, the relative viability ([16]; first compound 20 µM) was 0.652 and the relative viability ([17]; first compound 0.2 µM) was 0.505. The relative viability ([17]; first compound 0.6325 µM) was 0.62, the relative viability ([17]; first compound 6.325 µM) was 0.421 and the relative viability ([17]; first compound 20 µM) was 0.349. The relative viability ([18]; first compound 0.2 µM) was 0.484, the relative viability ([18]; first compound 0.6325 µM) was 0.578 and the relative viability ([18]; first compound 2 µM) was 0.626. The relative viability ([18]; first compound 6.325 µM) was 0.577 and the relative viability ([18]; first compound 20 µM) was 0.563.

Reference: the supplement of paper PMC10307832
